Data published in PubChem BioAssay (NCI).
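Compound exposure: 48 hours, 5 concentrations, 96-well plates. GI50 is the concentration that inhibits growth by half. TGI marks complete inhibition of growth.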

How the values were obtained:
Experiment in all cases: inhibition of tumour cell growth, NCI panel, 48 h
[1] = test system: 786-0 renal
[2] = test system: A498 renal
[3] = test system: A549 NSCLC
[4] = test system: ACHN renal
[5] = test system: BT-549 breast
[6] = test system: CAKI-1 renal
[7] = test system: CCRF-CEM leukemia
[8] = test system: COLO 205 colon
[9] = test system: DU-145 prostate
[10] = test system: EKVX NSCLC
[11] = test system: HCC-2998 colon
[12] = test system: HCT-116 colon
[13] = test system: HCT-15 colon
[14] = test system: HL-60(TB) leukemia
[15] = test system: HOP-62 NSCLC
[16] = test system: HOP-92 NSCLC
[17] = test system: HS 578T breast
[18] = test system: HT29 colon
[19] = test system: IGROV1 ovarian
[20] = test system: K-562 leukemia
[21] = test system: KM12 colon
[22] = test system: M14 melanoma
[23] = test system: MALME-3M melanoma
[24] = test system: MCF7 breast
[25] = test system: MDA-MB-231 breast
[26] = test system: MDA-MB-435
[27] = test system: MOLT-4 leukemia
[28] = test system: NCI-H226 lung
[29] = test system: NCI-H23 lung
[30] = test system: NCI-H460 lung
[31] = test system: NCI-H522 lung
[32] = test system: NCI/ADR-RES ovarian
[33] = test system: OVCAR-4 ovarian
[34] = test system: OVCAR-5 ovarian
[35] = test system: OVCAR-8 ovarian
[36] = test system: PC-3 prostate
[37] = test system: RPMI-8226 leukemia
[38] = test system: RXF 393 renal
[39] = test system: SF-268 CNS
[40] = test system: SF-295 CNS
[41] = test system: SF-539 CNS
[42] = test system: SK-MEL-2 melanoma
[43] = test system: SK-MEL-28 melanoma
[44] = test system: SK-MEL-5 melanoma
[45] = test system: SK-OV-3 ovarian
[46] = test system: SN12C renal
[47] = test system: SNB-19 CNS
[48] = test system: SNB-75 CNS
[49] = test system: SR leukemia
[50] = test system: SW-620 colon
[51] = test system: T-47D breast
[52] = test system: TK-10 renal
[53] = test system: U251 CNS
[54] = test system: UACC-257 melanoma
[55] = test system: UACC-62 melanoma
[56] = test system: UO-31 renal
[57] = test system: LOX IMVI melanoma
[58] = test system: OVCAR-3 ovarian

Work on `Cn1ccnc1C(=O)/C=C/C=C/c1ccc(C(=O)Nc2ccc(F)cc2)cc1` yielded a GI50 [1] of 778 nM, a TGI [1] of 1880 nM and a GI50 [2] of 2600 nM. For the same compound, the TGI [2] was 26900 nM, the GI50 [3] was 5360 nM and the TGI [3] was > 33300 nM. For the same compound, the GI50 [4] was 1150 nM, the TGI [4] was 5540 nM and the GI50 [5] was 1320 nM. The TGI [5] was 15100 nM, the GI50 [6] was 3220 nM and the TGI [6] was > 33300 nM. For the same compound, the GI50 [7] was 731 nM, the TGI [7] was > 33300 nM and the GI50 [8] was 5610 nM. The TGI [8] was > 33300 nM, the GI50 [9] was 1520 nM and the TGI [9] was > 33300 nM. For the same compound, the GI50 [10] was 1260 nM, the TGI [10] was 12100 nM and the GI50 [11] was 2610 nM. It also gave a TGI [11] of 8770 nM, a GI50 [12] of 666 nM and a TGI [12] of 1570 nM. It also gave a GI50 [13] of 568 nM, a TGI [13] of 1250 nM and a GI50 [14] of 956 nM. For the same compound, the TGI [14] was 7200 nM, the GI50 [15] was 8470 nM and the TGI [15] was > 33300 nM. The GI50 [16] was 3140 nM, the TGI [16] was 20500 nM and the GI50 [17] was 2270 nM. The TGI [17] was > 33300 nM, the GI50 [18] was 890 nM and the TGI [18] was 2490 nM. The GI50 [19] was 846 nM, the TGI [19] was 2610 nM and the GI50 [20] was 828 nM. For the same compound, the TGI [20] was > 33300 nM, the GI50 [21] was 6790 nM and the TGI [21] was > 33300 nM. For the same compound, the GI50 [22] was 1930 nM, the TGI [22] was 28700 nM and the GI50 [23] was 1290 nM. For the same compound, the TGI [23] was 6580 nM, the GI50 [24] was 917 nM and the TGI [24] was > 33300 nM. The GI50 [25] was 1410 nM, the TGI [25] was > 33300 nM and the GI50 [26] was 1070 nM. The TGI [26] was 4450 nM, the GI50 [27] was 1020 nM and the TGI [27] was > 33300 nM. The GI50 [28] was 2180 nM, the TGI [28] was 12800 nM and the GI50 [29] was 1040 nM. It also gave a TGI [29] of 4460 nM, a GI50 [30] of 1940 nM and a TGI [30] of 10600 nM. For the same compound, the GI50 [31] was 1640 nM, the TGI [31] was 16800 nM and the GI50 [32] was 2020 nM. For the same compound, the TGI [32] was > 33300 nM, the GI50 [33] was 6060 nM and the TGI [33] was > 33300 nM. It also gave a GI50 [34] of 1730 nM, a TGI [34] of 16800 nM and a GI50 [35] of 1200 nM. For the same compound, the TGI [35] was > 33300 nM, the GI50 [36] was 1260 nM and the TGI [36] was > 33300 nM. The GI50 [37] was 699 nM, the TGI [37] was 2270 nM and the GI50 [38] was 711 nM. The TGI [38] was 1920 nM, the GI50 [39] was 1540 nM and the TGI [39] was > 33300 nM. The GI50 [40] was 9490 nM, the TGI [40] was > 33300 nM and the GI50 [41] was 858 nM. The TGI [41] was 2440 nM, the GI50 [42] was 17900 nM and the TGI [42] was > 33300 nM. The GI50 [43] was 2410 nM, the TGI [43] was > 33300 nM and the GI50 [44] was 2650 nM. For the same compound, the TGI [44] was 12000 nM, the GI50 [45] was 11000 nM and the TGI [45] was > 33300 nM. For the same compound, the GI50 [46] was 1540 nM, the TGI [46] was 14200 nM and the GI50 [47] was 2050 nM. For the same compound, the TGI [47] was > 33300 nM, the GI50 [48] was 1180 nM and the TGI [48] was 29300 nM. The GI50 [49] was 468 nM, the TGI [49] was > 33300 nM and the GI50 [50] was 796 nM. The TGI [50] was 2040 nM, the GI50 [51] was 2010 nM and the TGI [51] was > 33300 nM. For the same compound, the GI50 [52] was 27700 nM, the TGI [52] was > 33300 nM and the GI50 [53] was 911 nM. The TGI [53] was 8200 nM, the GI50 [54] was 14100 nM and the TGI [54] was > 33300 nM. For the same compound, the GI50 [55] was 3480 nM, the TGI [55] was 15400 nM and the GI50 [56] was 1420 nM. It also gave a TGI [56] of 7160 nM.

`COc1ccc2c(c1)c(/C=N/Nc1ccnc3cc(Cl)ccc13)cn2C` gave a GI50 [1] of 175 nM, a TGI [1] of 317 nM and a GI50 [2] of 1830 nM. The TGI [2] was 3470 nM, the GI50 [3] was 181 nM and the TGI [3] was 347 nM. It also gave a GI50 [4] of 683 nM, a TGI [4] of 1560 nM and a GI50 [5] of 1890 nM. The TGI [5] was 3540 nM, the GI50 [6] was 1490 nM and the TGI [6] was 2890 nM. The GI50 [7] was 234 nM, the TGI [7] was 589 nM and the GI50 [8] was 578 nM. The TGI [8] was 1800 nM, the GI50 [9] was 192 nM and the TGI [9] was 349 nM. It also gave a GI50 [10] of 1510 nM, a TGI [10] of 3190 nM and a GI50 [11] of 369 nM. The TGI [11] was 1190 nM, the GI50 [12] was 176 nM and the TGI [12] was 324 nM. For the same compound, the GI50 [13] was 200 nM, the TGI [13] was 410 nM and the GI50 [14] was 231 nM. For the same compound, the TGI [14] was 533 nM, the GI50 [15] was 1450 nM and the TGI [15] was 3300 nM. The GI50 [16] was 823 nM, the TGI [16] was 2490 nM and the GI50 [17] was 1810 nM. It also gave a TGI [17] of 3880 nM, a GI50 [18] of 176 nM and a TGI [18] of 325 nM. The GI50 [19] was 176 nM, the TGI [19] was 345 nM and the GI50 [20] was 193 nM. For the same compound, the TGI [20] was 382 nM, the GI50 [21] was 194 nM and the TGI [21] was 384 nM. For the same compound, the GI50 [57] was 183 nM, the TGI [57] was 352 nM and the GI50 [22] was 992 nM. The TGI [22] was 2600 nM, the GI50 [23] was 1470 nM and the TGI [23] was 3270 nM. For the same compound, the GI50 [24] was 164 nM, the TGI [24] was 327 nM and the GI50 [25] was 203 nM. For the same compound, the TGI [25] was 444 nM, the GI50 [26] was 186 nM and the TGI [26] was 354 nM. It also gave a GI50 [27] of 215 nM, a TGI [27] of 478 nM and a GI50 [28] of 1820 nM. The TGI [28] was 4310 nM, the GI50 [29] was 214 nM and the TGI [29] was 556 nM. For the same compound, the GI50 [30] was 193 nM, the TGI [30] was 357 nM and the GI50 [31] was 563 nM. For the same compound, the TGI [31] was 1280 nM, the GI50 [32] was 600 nM and the TGI [32] was 1480 nM. It also gave a GI50 [58] of 1180 nM, a TGI [58] of 2440 nM and a GI50 [33] of 681 nM. It also gave a TGI [33] of 1700 nM, a GI50 [34] of 609 nM and a TGI [34] of 1190 nM. It also gave a GI50 [35] of 202 nM, a TGI [35] of 440 nM and a GI50 [36] of 517 nM. The TGI [36] was 1290 nM, the GI50 [37] was 233 nM and the TGI [37] was 565 nM. It also gave a GI50 [38] of 1260 nM, a TGI [38] of 2900 nM and a GI50 [39] of 1660 nM. It also gave a TGI [39] of 3460 nM, a GI50 [40] of 1110 nM and a TGI [40] of 3150 nM. For the same compound, the GI50 [41] was 612 nM, the TGI [41] was 1250 nM and the GI50 [42] was 1700 nM. The TGI [42] was 3280 nM, the GI50 [43] was 1840 nM and the TGI [43] was 3460 nM. It also gave a GI50 [44] of 1640 nM, a TGI [44] of 3180 nM and a GI50 [45] of 1570 nM. It also gave a TGI [45] of 3140 nM, a GI50 [46] of 439 nM and a TGI [46] of 961 nM. The GI50 [47] was 648 nM, the TGI [47] was 2090 nM and the GI50 [48] was 1320 nM. It also gave a TGI [48] of 2800 nM, a GI50 [49] of 143 nM and a TGI [49] of 521 nM. It also gave a GI50 [50] of 185 nM, a TGI [50] of 360 nM and a GI50 [51] of 227 nM. The TGI [51] was 599 nM, the GI50 [52] was 1240 nM and the TGI [52] was 2780 nM. The GI50 [53] was 173 nM, the TGI [53] was 322 nM and the GI50 [54] was 1780 nM. The TGI [54] was 3660 nM, the GI50 [55] was 1730 nM and the TGI [55] was 3520 nM. It also gave a GI50 [56] of 1390 nM and a TGI [56] of 2850 nM.
